Reference: US20250145628A1, “PYRAZOLOPYRIMIDINES, COMPOSITIONS COMPRISING THEM AND USES THEREOF” (Novo Nordisk A/S, priority 2022, published 2025)

Columns and labels:
[1] = target: T1, human CB1 receptor (Homo sapiens, UniProt P21554); assay: bioSensAll GAPL-Gi2 BRET biosensor assay (antagonism of CP-55,940); type: cell-based; details: HEK293 cells transfected with hCB1 and GAPL-Gi2 biosensor, EC75 of CP-55,940 (0.1 nM), overnight incubation, read-out: CB1 wt Gi2 IC50
T1 construct: expressed in transfected cells; host or cells: HEK293
T1 sequence (P21554 whole entry): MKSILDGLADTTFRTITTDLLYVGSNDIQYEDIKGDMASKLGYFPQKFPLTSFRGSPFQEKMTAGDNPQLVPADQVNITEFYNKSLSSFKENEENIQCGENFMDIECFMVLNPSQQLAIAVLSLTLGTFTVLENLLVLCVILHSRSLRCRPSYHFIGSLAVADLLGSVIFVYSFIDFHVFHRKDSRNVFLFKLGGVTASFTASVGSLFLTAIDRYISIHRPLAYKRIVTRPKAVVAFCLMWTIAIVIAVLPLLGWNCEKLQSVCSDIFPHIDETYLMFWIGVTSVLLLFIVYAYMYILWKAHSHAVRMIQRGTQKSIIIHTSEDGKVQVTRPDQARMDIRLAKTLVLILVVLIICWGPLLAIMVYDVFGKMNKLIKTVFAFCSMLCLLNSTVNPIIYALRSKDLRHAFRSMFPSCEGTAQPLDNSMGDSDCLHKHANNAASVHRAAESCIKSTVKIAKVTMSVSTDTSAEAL
Protocol: (§1) Using polyethylenimine (PEI) transfection agent, HEK293 cells were transfected in suspension with the human CB1 or CB1b receptor and one of the following bioSensAll® assays: GAPL-Gi2, or β-arrestin plasma membrane (PM) translocation biosensor (+GRK2). Cells were directly seeded in 96-well plates immediately following transfection.
(§2) Cells were incubated with coelenterazine (luciferase substrate) and different test compounds prior to the measurement of BRET signals.
i) GAPL sensors are used to monitor the activation of heterotrimeric G proteins at the plasma membrane upon receptor stimulation. Specifically, these multimolecular BRET sensors detect the plasma membrane recruitment of proteins that interact with active Ga subunits in a G protein family-selective manner. G protein activation following receptor stimulation generally leads to an increase in the BRET signal.
(§3) HEK293 cells were maintained in Dulbecco's Modified Eagle Medium (DMEM) (Wisent; cat #319-030-CL: without sodium pyruvate, with 4.5 g/L glucose, without L-glutamine) supplemented with 1% penicillin-streptomycin (Wisent; cat #450-201-EL) and 2 or 10% fetal bovine serum (Wisent cat #090150).
(§4) HEK293 cells were co-transfected with hCB1 or hCB1b and one of the above-listed bioSensAll® assays. For each transfection condition: • the total amount of transfected DNA was kept constant at 1 μg per mL of cell culture to be transfected; whenever necessary, salmon sperm DNA (Invitrogen, cat #15632011) was used as ‘carrier’ DNA to supplement plasmid DNA (i.e., biosensor and receptor); • the PEI (polyethylenimine 25 kDa linear, PolyScience, cat #23966) to DNA ratio (ug:ug) was fixed at 3:1.
(§5) Transfections were carried out as follows: • DNA and PEI were first diluted separately in 150 mM NaCl. The volume of the diluent in each tube corresponds to 5% of the cell culture volume to be transfected. • Once DNA and PEI were diluted, the PEI-containing solution was added to the DNA solution and the DNA/PEI mixture immediately vortexed for 5 seconds. • The DNA/PEI mixture was incubated for at least 20 minutes at room temperature to allow for the formation of DNA/PEI complexes. • During the incubation, HEK293 cells were detached, counted and re-suspended in culture medium (composition specified above). • At the end of the incubation period, the DNA/PEI mixture was added to the cells. • Cells were finally distributed in 96-well plates (White Opaque 96-well/Microplates, Greiner, cat #655083 or CulturPlate-96, White Opaque 96-well Microplate, PerkinElmer, cat #6005688) at a density of 30 000 cells per well.
(§6) At ˜48 hours post-transfection: • Using 450-Select TS Biotek plate washer, culture medium was aspirated and replaced with 100 μl of Hank's Balanced Salt Solution buffer (HBSS) (Wisent, cat #319-067CL: without red phenol; with sodium bicarbonate, with calcium and magnesium, with HEPES) per well. This process was performed a total of two times (i.e., 2 washes). • After the washing step, the HP D300 digital dispenser (Tecan) was used to inject increasing doses (12) of test compounds (ranging from 0-600 nM) to wells. Three to five minutes later, an EC75 of CP-55,940 (0.1 nM for GAPL-Gi2 assay; 100 nM for β-arrestin PM translocation biosensor (+GRK2)) was added to columns 2-12 of each 96-well plate.
(§7) BRET signals were determined by calculating the ratio of light emitted by GFP-acceptor (515 nm) over light emitted by luciferase-donor (400 nm). All BRET ratios were standardized using the equation below with pre-established BRET values for positive and negative controls. The standardized BRET ratio is referred to as universal BRET (uBRET).
(§8) Resulting dose-response curves were fitted using the four-parameter logistic non-linear regression model in GraphPad Prism 9.

[2] = target: T1, human CB1 receptor; assay: bioSensAll β-arrestin plasma membrane translocation BRET biosensor (+GRK2) assay (antagonism of CP-55,940); type: cell-based; details: HEK293 cells transfected with hCB1 and β-arrestin PM translocation biosensor (+GRK2), EC75 of CP-55,940 (100 nM), overnight incubation, read-out: CB1 wt βarr2 IC50
Protocol: as §1, §2
ii) The multimolecular β-arrestin membrane recruitment biosensors allow for real-time spatio-temporal monitoring of β-arrestin 1 and β-arrestin 2 following GPCR activation. Specifically, these β-arrestin sensors were designed to detect the recruitment of proteins to the plasma membrane (β-arrestin PM) with localization to compartment resulting in an increased BRET signal.
as §3, §4, §5, §6, §7, §8

Row | IC50 [1] [nM] | IC50 [2] [nM] | SMILES
1 | 7610 | > 30000 | CN(CC1COC(C)(C)OC1)c1cc(N2CCC(C)(C(N)=O)CC2)n2nc(-c3ccccc3Cl)c(-c3ccc(Cl)cc3)c2n1 [Compound 62, 1-[2-(2-chlorophenyl)-3-(4-chlorophenyl)-5-[(2,2-dimethyl-1,3-dioxan-5-yl)methyl-methyl-amino]pyrazolo[1,5-a]pyrimidin-7-yl]-4-methyl-piperidine-4-carboxamide]
2 | 34.8 | 114 | CN(C)C(=O)CN(C)c1cc(N2CCC[C@@H](C(N)=O)C2)n2nc(-c3ccccc3Cl)c(-c3ccc(Cl)cc3)c2n1 [Compound 29, (3R)-1-[2-(2-chlorophenyl)-3-(4-chlorophenyl)-5-[[2-(dimethylamino)-2-oxo-ethyl]-methyl-amino]pyrazolo[1,5-a]pyrimidin-7-yl]piperidine-3-carboxamide]
3 | 2.21 | 4.79 | COc1ccc(-c2cc(N3CCC[C@H]3CO)nc3c(-c4ccc(Cl)cc4)c(-c4ccc(C#N)cc4)nn23)cc1 [Compound 50, 4-[3-(4-chlorophenyl)-5-[(2S)-2-(hydroxymethyl)pyrrolidin-1-yl]-7-(4-methoxyphenyl)pyrazolo[1,5-a]pyrimidin-2-yl]benzonitrile]
4 | 7.3 | 47.3 | CN(CCOCCO)c1cc(N2CCC(C)(C(N)=O)CC2)n2nc(-c3ccccc3Cl)c(-c3ccc(Cl)cc3)c2n1 [Compound 66, 1-[2-(2-chlorophenyl)-3-(4-chlorophenyl)-5-[2-(2-hydroxyethoxy)ethyl-methyl-amino]pyrazolo[1,5-a]pyrimidin-7-yl]-4-methyl-piperidine-4-carboxamide]
5 | 1.96 | 14.5 | CN(C[C@H](O)CO)c1cc(N2CCC(C)(C(N)=O)CC2)n2nc(-c3ccccc3Cl)c(-c3ccc(Cl)cc3)c2n1 [Compound 67, 1-[2-(2-chlorophenyl)-3-(4-chlorophenyl)-5-[[(2S)-2,3-dihydroxypropyl]-methyl-amino]pyrazolo[1,5-a]pyrimidin-7-yl]-4-methyl-piperidine-4-carboxamide]
6 | 1.33 | 3.33 | O[C@@H]1CCN(c2cc(-c3ccc(C(F)(F)F)nc3)n3nc(-c4ccccc4Cl)c(-c4ccc(Cl)cc4)c3n2)C1 [Compound 72(R)]

More lines, now with the values behind:

Row | SMILES | IC50 [1] [nM] | IC50 [2] [nM]
7 | CC(C)(O)COc1cc(N2CCC(C)(O)CC2)n2nc(-c3ccccc3Cl)c(-c3ccc(Cl)cc3)c2n1 [Compound 14, 1-[2-(2-chlorophenyl)-3-(4-chlorophenyl)-5-(2-hydroxy-2-methyl-propoxy)pyrazolo[1,5-a]pyrimidin-7-yl]-4-methyl-piperidin-4-ol] | 2.52 | 9.25
8 | CN(CCO)c1cc(N2CCC(C)(C(N)=O)CC2)n2nc(-c3ccccc3Cl)c(-c3ccc(Cl)cc3)c2n1 [Compound 10, 1-[2-(2-chlorophenyl)-3-(4-chlorophenyl)-5-[2-hydroxyethyl(methyl)amino]pyrazolo[1,5-a]pyrimidin-7-yl]-4-methyl-piperidine-4-carboxamide] | 0.255 | 1.74
9 | CN(CCC(N)=O)c1cc(N2CC(CC(N)=O)C2)n2nc(-c3ccccc3Cl)c(-c3ccc(Cl)cc3)c2n1 [Compound 24, 3-[[7-[3-(2-amino-2-oxo-ethyl)azetidin-1-yl]-2-(2-chlorophenyl)-3-(4-chlorophenyl)pyrazolo[1,5-a]pyrimidin-5-yl]-methyl-amino]propanamide] | 14.6 | 94.6
10 | CC1(C(N)=O)CCN(c2cc(N3CCC[C@H]3CO)nc3c(-c4ccc(Cl)cc4)c(-c4ccccc4Cl)nn23)CC1 [Compound 9, 1-[2-(2-chlorophenyl)-3-(4-chlorophenyl)-5-[(2S)-2-(hydroxymethyl)pyrrolidin-1-yl]pyrazolo[1,5-a]pyrimidin-7-yl]-4-methyl-piperidine-4-carboxamide] | 0.351 | 1.84
